The source of these data is publication PMC3669377, “Purification, Cloning, Characterization and Essential Amino Acid Residues Analysis of a New ι-Carrageenase from Cellulophaga sp. QY3” (PLoS ONE, 2013).

The test deals with T1, CgiA_Ce (Cellulophaga sp. QY3, UniProt M1EU02).
T1 construct: gene cgiA; native secreted enzyme purified from culture supernatant; mature, putative signal peptide M1-S41 removed (precursor 492 residues); monomer
T1 sequence (M1EU02 42-492): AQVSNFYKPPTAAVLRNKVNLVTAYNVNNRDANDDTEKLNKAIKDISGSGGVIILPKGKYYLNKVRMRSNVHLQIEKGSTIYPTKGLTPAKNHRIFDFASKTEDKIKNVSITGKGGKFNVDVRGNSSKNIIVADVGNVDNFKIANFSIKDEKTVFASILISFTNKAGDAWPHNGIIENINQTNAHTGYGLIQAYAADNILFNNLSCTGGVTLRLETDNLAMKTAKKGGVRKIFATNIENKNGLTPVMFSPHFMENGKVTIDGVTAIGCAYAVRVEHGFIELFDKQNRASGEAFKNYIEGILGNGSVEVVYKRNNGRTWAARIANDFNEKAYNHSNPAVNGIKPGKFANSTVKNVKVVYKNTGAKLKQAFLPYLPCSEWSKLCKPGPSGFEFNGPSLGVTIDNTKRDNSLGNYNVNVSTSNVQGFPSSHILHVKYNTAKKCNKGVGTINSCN
Put plainly: FACE analysis of hydrolysis products. The settings on record: pH 7.0, 45°C; 10 mg/ml substrate; minimum substrate; products neo-iota-carrabiose and neo-iota-carratetraose. The class given is biochemical.

Consider `O=S(=O)(O)O[C@@H]1[C@H](O[C@H]2O[C@@H]3CO[C@@H]([C@H]3O[C@@H]3O[C@H](CO)[C@H](OS(=O)(=O)O)[C@H](O[C@H]4O[C@@H]5CO[C@@H]([C@H]5O)[C@H]4OS(=O)(=O)O)[C@H]3O)[C@H]2OS(=O)(=O)O)[C@@H](O)[C@H](O[C@@H]2[C@@H]3OC[C@H]2O[C@H](O[C@H]2[C@@H](OS(=O)(=O)O)[C@@H](CO)OC(O)[C@@H]2O)[C@@H]3OS(=O)(=O)O)O[C@@H]1CO` (stereo partly shown) [DP6, neo-ι-carrahexaose], for which the “FACE analysis of hydrolysis products” value is “Neo-ι-carrahexaose was the shortest chain that can be recognized and cleaved by CgiA_Ce”.
